Measured values reported in patent US20090215707A1, “COMPOUND HAVING CYCLIC STRUCTURE AND USE THEREOF” (RIKEN, priority 2005, published 2009).

Tested on: spleen cells
Assay: Cytokine (IFN-γ, IL-4) production in mouse spleen cell culture, sandwich ELISA assay
Assay type: cell-based
Details: mouse spleen cells 2×10^5 cells/well, reagent at 2, 20 and 200 ng/mL, supernatant 4 days later, values only in FIG. 1-6
Protocol: The spleen cells removed from the spleen of mouse were individually prepared to 2×10^5 cells/well (96-well plate) using RPMI1640 culture medium (manufactured by Sigma Corporation) containing 10% fetal calf serum (FCS). A reagent was added to the culture medium at each of the concentrations of 2 ng/mL, 20 ng/mL and 200 ng/mL. The cytokine amount in the culture supernatant 4 days later was measured by sandwich ELISA assay. As the test substances, compounds 33 and 34 obtained in Examples 14 and 15 were used, and α-galactosylceramide represented by the following formula (a) (α-GC, abbreviated as compound a in the Figure) was used as a control substance. In addition, DMSO was used as a control.
The cytokine amount was measured by sandwich ELISA assay in the same manner as in Experimental Example 1 except that compound 23 obtained in Example 6 was used as a test substance. In addition, the time course changes in the amount of IFN-γ production are shown in FIG. 5, and the time course changes in the amount of IL-4 production are shown in FIG. 6.

Row | SMILES | cytokine production pattern (IFN-γ and IL-4 production amount in culture supernatant)
1 | CCCCCCCCCCCCCCCCCCCCCCCCCC(=O)N[C@@H](COC1OC(CO)C(O)C(O)C1O)[C@H](O)[C@H](O)CCCCCCCCCCCCCC (stereo partly drawn) [α-galactosylceramide, reference compound] | produced both IFN-γ and IL-4 in large amounts
2 | CCCCCCCCCCCCCCCCCCCCCCCCCC(=O)N1[C@@H](CCCCCCCCCCCCCC)[C@@H](O)[C@@H]1COC1OC(CO)C(O)C(O)C1O (stereo partly shown) [compound 23] | ability to preferentially induce IL-4 production
3 | CCCCCCCCCCCCCCCCCCCCCCCCCC(=O)N1[C@@H](CCCCCCCCCCCCC)C[C@@H](O)[C@@H]1COC1OC(CO)C(O)C(O)C1O (stereo partly shown) [compound 33] | IL-4 preferential cytokine production pattern
4 | CCCCCCCCCCCCCCCCCCCCCCCCCC(=O)N1[C@@H](CCCCCCCCCCCCC)C[C@@H](O)[C@@H]1COC1OC(CO)C(O)C(O)C1O (stereo partly shown) [compound 34] | IL-4 preferential cytokine production pattern
